Assay results taken from US9969726B2, “Metabotropic glutamate receptor negative allosteric modulators (NAMS) and uses thereof” (Sanford-Burnham Medical Research Institute, priority 2014, dated 2018).
Like-named read-outs stand apart in the source and are kept apart here.

Assays:
rat mGlu3 receptor = rat mGlu3 receptor (Rattus norvegicus (Rat), UniProt P31422); assay: mGlu3 in vitro GIRK thallium flux assay; format: cell-based; settings: NAM; 2.5 min compound incubation; EC80 glutamate; HEK-293 GIRK cells
Procedure, shortened: (§1)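 Cells expressing rat mGlu2 or mGlu3 with GIRK, plated overnight at 37 °C. Test compounds (0.3% DMSO, 10-point 1:3 series) preincubated 2.5 or 60 min, then thallium buffer plus EC80 glutamate added. Fluorescence slope 5–15 s after addition, normalised to vehicle and maximal agonist, fitted by four-parameter logistic.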

rat mGlu2 receptor = rat mGlu2 receptor (Rattus norvegicus (Rat), UniProt P31421); assay: mGlu2 in vitro GIRK thallium flux assay; format: cell-based; settings: NAM, EC80 glutamate, HEK-293 GIRK cells
Procedure, shortened: as §1

[1] = 2.5 min compound incubation, read-out: mGlu2 EC50 (μM) (2.5 min)
[2] = read-out: mGlu2 EC50 (μM) (60 min), 60 min compound incubation

Sequence of rat mGlu2 receptor (P31421 19-872): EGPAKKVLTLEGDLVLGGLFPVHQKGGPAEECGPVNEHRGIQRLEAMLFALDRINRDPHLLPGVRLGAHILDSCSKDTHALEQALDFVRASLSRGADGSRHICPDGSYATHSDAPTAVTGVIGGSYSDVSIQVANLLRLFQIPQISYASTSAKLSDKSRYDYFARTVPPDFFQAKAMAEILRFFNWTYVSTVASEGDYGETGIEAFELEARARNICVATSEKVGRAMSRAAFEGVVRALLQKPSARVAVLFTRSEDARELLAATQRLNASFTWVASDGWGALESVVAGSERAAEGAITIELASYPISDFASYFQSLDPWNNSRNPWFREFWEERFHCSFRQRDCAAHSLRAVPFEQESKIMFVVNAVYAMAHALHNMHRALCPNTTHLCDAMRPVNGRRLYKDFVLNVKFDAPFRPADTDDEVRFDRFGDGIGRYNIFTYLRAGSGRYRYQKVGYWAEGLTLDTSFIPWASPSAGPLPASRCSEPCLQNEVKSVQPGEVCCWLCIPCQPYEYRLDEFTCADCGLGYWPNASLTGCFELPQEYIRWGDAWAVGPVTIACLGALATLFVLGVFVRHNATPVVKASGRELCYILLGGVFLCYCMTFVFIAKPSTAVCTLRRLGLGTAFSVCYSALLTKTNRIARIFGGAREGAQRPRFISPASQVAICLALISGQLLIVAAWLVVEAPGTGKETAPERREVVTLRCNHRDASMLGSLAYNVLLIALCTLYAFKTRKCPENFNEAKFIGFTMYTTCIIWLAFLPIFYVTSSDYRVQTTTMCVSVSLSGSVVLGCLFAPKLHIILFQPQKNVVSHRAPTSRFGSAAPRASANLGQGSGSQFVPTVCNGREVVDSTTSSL
Sequence of rat mGlu3 receptor (P31422 23-879): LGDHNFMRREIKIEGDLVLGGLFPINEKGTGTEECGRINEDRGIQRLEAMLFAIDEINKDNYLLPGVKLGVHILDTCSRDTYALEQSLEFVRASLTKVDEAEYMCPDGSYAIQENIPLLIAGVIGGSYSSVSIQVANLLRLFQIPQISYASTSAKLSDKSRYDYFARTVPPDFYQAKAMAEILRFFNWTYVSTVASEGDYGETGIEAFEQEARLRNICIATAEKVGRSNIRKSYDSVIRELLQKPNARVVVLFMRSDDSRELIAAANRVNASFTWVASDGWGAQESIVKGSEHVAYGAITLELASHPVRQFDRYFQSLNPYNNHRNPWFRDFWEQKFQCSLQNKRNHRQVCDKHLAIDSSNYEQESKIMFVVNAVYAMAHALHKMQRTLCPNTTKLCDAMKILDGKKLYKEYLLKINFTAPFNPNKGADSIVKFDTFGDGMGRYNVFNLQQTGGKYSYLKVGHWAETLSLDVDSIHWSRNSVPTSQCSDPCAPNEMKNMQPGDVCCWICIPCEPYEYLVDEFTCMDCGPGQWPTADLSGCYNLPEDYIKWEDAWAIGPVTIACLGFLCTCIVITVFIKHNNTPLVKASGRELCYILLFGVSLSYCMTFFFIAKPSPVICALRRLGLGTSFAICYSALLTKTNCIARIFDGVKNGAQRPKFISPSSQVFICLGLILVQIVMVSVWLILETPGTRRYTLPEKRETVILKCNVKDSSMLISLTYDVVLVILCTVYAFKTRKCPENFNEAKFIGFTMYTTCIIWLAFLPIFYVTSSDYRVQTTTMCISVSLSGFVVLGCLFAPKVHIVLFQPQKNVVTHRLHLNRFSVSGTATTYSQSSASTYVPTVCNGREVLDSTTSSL

Structure (SMILES)	EC50 (rat mGlu3 receptor)	EC50 (rat mGlu2 receptor; [1])	EC50 (rat mGlu2 receptor; [2])
O=C(O)c1cc(-c2cccc(-c3nc(-c4cc5ccccc5s4)cc(C(F)(F)F)n3)c2)ccc1F [Example 102, 3′-(4-(Benzo[b]thiophen-2-yl)-6-(trifluoromethyl)pyrimidin-2-yl)-4-fluorobiphenyl-3-carboxylic Acid]	3.12 µM	3.33 µM	0.88 µM
CSc1ccc(-c2cc(C(F)(F)F)nc(-c3cccc(-c4ccc(F)c(C(=O)O)c4)c3)n2)cc1 [Example 103, 4-Fluoro-3′-(4-(4-(methylthio)phenyl)-6-(trifluoromethyl)pyrimidin-2-yl)biphenyl-3-carboxylic Acid]	4.54 µM	4.69 µM	0.99 µM
O=C(O)c1cc(F)cc(-c2cccc(-c3nc(-c4ccccc4)cc(C(F)(F)F)n3)c2)c1 [Example 104, 5-Fluoro-3′-(4-phenyl-6-(trifluoromethyl)pyrimidin-2-yl)biphenyl-3-carboxylic Acid]	1.9 µM	1.44 µM	0.24 µM
O=C(O)c1cc(-c2cccc(-c3nc(-c4cc(C(F)(F)F)cc(C(F)(F)F)c4)cc(C(F)(F)F)n3)c2)ccc1F [Example 105, 3′-(4-(3,5-Bis(trifluoromethyl)phenyl)-6-(trifluoromethyl)pyrimidin-2-yl)-4-fluorobiphenyl-3-carboxylic Acid]	> 10 µM	> 10 µM	3.19 µM
O=C(O)c1cc(-c2cccc(-c3nc(-c4ccc[nH]4)cc(C(F)(F)F)n3)c2)ccc1F [Example 106, 3′-(4-(1H-Pyrrol-2-yl)-6-(trifluoromethyl)pyrimidin-2-yl)-4-fluorobiphenyl-3-carboxylic Acid]	5.06 µM	1.19 µM	1.42 µM
O=C(O)c1cc(-c2cccc(-c3nc(-c4sccc4Cl)cc(C(F)(F)F)n3)c2)ccc1F [Example 107, 3′-(4-(3-Chlorothiophen-2-yl)-6-(trifluoromethyl)pyrimidin-2-yl)-4-fluorobiphenyl-3-carboxylic Acid]	> 10 µM	4.53 µM	–
O=C(O)c1cc(-c2cccc(-c3nc(-c4ccc(C(F)(F)F)cc4)cc(C(F)(F)F)n3)c2)ccc1F [Example 108, 4-Fluoro-3′-(4-(trifluoromethyl)-6-(4-(trifluoromethyl)phenyl)pyrimidin-2-yl)biphenyl-3-carboxylic Acid]	1.49 µM	1.5 µM	–
O=C(O)c1cc(-c2cccc(-c3nc(-c4nccs4)cc(C(F)(F)F)n3)c2)ccc1F [Example 109, 4-Fluoro-3′-(4-(thiazol-2-yl)-6-(trifluoromethyl)pyrimidin-2-yl)biphenyl-3-carboxylic Acid]	2.13 µM	1.34 µM	0.297 µM
O=C(O)c1cc(-c2cccc(-c3nc(-c4ccc(Cl)cc4F)cc(C(F)(F)F)n3)c2)ccc1F [Example 110, 3′-(4-(4-Chloro-2-fluorophenyl)-6-(trifluoromethyl)pyrimidin-2-yl)-4-fluorobiphenyl-3-carboxylic Acid]	5.34 µM	4.08 µM	0.65 µM
Cc1noc(C)c1-c1cc(C(F)(F)F)nc(-c2cccc(-c3ccc(F)c(C(=O)O)c3)c2)n1 [Example 111, 3′-(4-(3,5-Dimethylisoxazol-4-yl)-6-(trifluoromethyl)pyrimidin-2-yl)-4-fluorobiphenyl-3-carboxylic Acid]	> 10 µM	> 10 µM	> 10 µM
Cc1ccc(-c2cc(C(F)(F)F)nc(-c3cccc(-c4ccc(F)c(C(=O)O)c4)c3)n2)s1 [Example 112, 4-Fluoro-3′-(4-(5-methylthiophen-2-yl)-6-(trifluoromethyl)pyrimidin-2-yl)biphenyl-3-carboxylic Acid]	3.14 µM	3.19 µM	0.75 µM
O=C(O)c1cc(F)cc(-c2cccc(-c3nc(-c4ccoc4)cc(C(F)(F)F)n3)c2)c1 [Example 113, 5-Fluoro-3′-(4-(furan-3-yl)-6-(trifluoromethyl)pyrimidin-2-yl)biphenyl-3-carboxylic Acid]	1.15 µM	0.4 µM	0.23 µM
